Experimental data taken from the supplement of paper PMC11451515.

Tested on: NOMO1
Assay: cell viability relative to DMSO control; higher = less cytotoxic
Conditions: 48 h
Method in brief: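 NOMO1, SEM and P12-Ichikawa leukemia cells spent at least four passages adapting to each medium before use. They were seeded at 500 cells/well (NOMO1, SEM) or 1000 cells/well (P12-Ichikawa) in 5 μl in 1536-well plates and pin-dosed with library compounds in DMSO at 11 threefold steps from 47 μM down to 0.79 nM. After 48 h at 37°C, CellTiter-Glo One luminescence was read. Viability is reported as a percentage of the DMSO wells on each plate, with cell-free wells as background.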

[1] = HPLM + 10% dialyzed FBS, 0.000781 µM
[2] = HPLM + 10% dialyzed FBS, 0.00234 µM
[3] = HPLM + 10% dialyzed FBS, 0.00702 µM
[4] = HPLM + 10% dialyzed FBS, 0.0211 µM
[5] = HPLM + 10% dialyzed FBS, 0.0632 µM
[6] = HPLM + 10% dialyzed FBS, 0.19 µM
[7] = HPLM + 10% dialyzed FBS, 0.569 µM
[8] = HPLM + 10% dialyzed FBS, 1.71 µM
[9] = HPLM + 10% dialyzed FBS, 5.12 µM
[10] = HPLM + 10% dialyzed FBS, 15.4 µM
[11] = HPLM + 10% dialyzed FBS, 46.1 µM
[12] = RPMI 5 mM glucose + 10% FBS, 0.000781 µM
[13] = RPMI 5 mM glucose + 10% FBS, 0.00234 µM
[14] = RPMI 5 mM glucose + 10% FBS, 0.00702 µM
[15] = RPMI 5 mM glucose + 10% FBS, 0.0211 µM
[16] = RPMI 5 mM glucose + 10% FBS, 0.0632 µM
[17] = RPMI 5 mM glucose + 10% FBS, 0.19 µM
[18] = RPMI 5 mM glucose + 10% FBS, 0.569 µM
[19] = RPMI 5 mM glucose + 10% FBS, 1.71 µM
[20] = RPMI 5 mM glucose + 10% FBS, 5.12 µM
[21] = RPMI 5 mM glucose + 10% FBS, 15.4 µM
[22] = RPMI 5 mM glucose + 10% FBS, 46.1 µM
[23] = RPMI 5 mM glucose + 10% dialyzed FBS, 0.000781 µM
[24] = RPMI 5 mM glucose + 10% dialyzed FBS, 0.00234 µM
[25] = RPMI 5 mM glucose + 10% dialyzed FBS, 0.00702 µM
[26] = RPMI 5 mM glucose + 10% dialyzed FBS, 0.0211 µM
[27] = RPMI 5 mM glucose + 10% dialyzed FBS, 0.0632 µM
[28] = RPMI 5 mM glucose + 10% dialyzed FBS, 0.19 µM
[29] = RPMI 5 mM glucose + 10% dialyzed FBS, 0.569 µM
[30] = RPMI 5 mM glucose + 10% dialyzed FBS, 1.71 µM
[31] = RPMI 5 mM glucose + 10% dialyzed FBS, 5.12 µM
[32] = RPMI 5 mM glucose + 10% dialyzed FBS, 15.4 µM
[33] = RPMI 5 mM glucose + 10% dialyzed FBS, 46.1 µM

Structure (SMILES): NC(=O)c1cccc2cn(-c3ccc([C@@H]4CCCNC4)cc3)nc12
- cell viability [1]: 90.2%
- cell viability [2]: 97.4%
- cell viability [3]: 114%
- cell viability [4]: 103%
- cell viability [5]: 118%
- cell viability [6]: 122%
- cell viability [7]: 114%
- cell viability [8]: 111%
- cell viability [9]: 98.2%
- cell viability [10]: 117%
- cell viability [11]: 69%
- cell viability [12]: 83.5%
- cell viability [13]: 82.2%
- cell viability [14]: 100%
- cell viability [15]: 102%
- cell viability [16]: 93.8%
- cell viability [17]: 97.1%
- cell viability [18]: 91.5%
- cell viability [19]: 106%
- cell viability [20]: 103%
- cell viability [21]: 105%
- cell viability [22]: 82.2%
- cell viability [23]: 83.8%
- cell viability [24]: 111%
- cell viability [25]: 108%
- cell viability [26]: 111%
- cell viability [27]: 108%
- cell viability [28]: 122%
- cell viability [29]: 114%
- cell viability [30]: 102%
- cell viability [31]: 110%
- cell viability [32]: 118%
- cell viability [33]: 98.8%

Structure (SMILES): CN1\N=C(N)/C2=C[N]([C@@H]3O[C@H](CO[P](O)(O)=O)[C@@H](O)[C@H]3O)C4=C2C1=NC=N4
- cell viability [1]: 108%
- cell viability [2]: 111%
- cell viability [3]: 124%
- cell viability [4]: 111%
- cell viability [5]: 104%
- cell viability [6]: 88.6%
- cell viability [7]: 74.6%
- cell viability [8]: 67.7%
- cell viability [9]: 59.5%
- cell viability [10]: 30.1%
- cell viability [11]: 16.2%
- cell viability [12]: 109%
- cell viability [13]: 107%
- cell viability [14]: 112%
- cell viability [15]: 99.9%
- cell viability [16]: 99.2%
- cell viability [17]: 89.6%
- cell viability [18]: 93.7%
- cell viability [19]: 77.3%
- cell viability [20]: 84.1%
- cell viability [21]: 52.1%
- cell viability [22]: 50%
- cell viability [23]: 98.8%
- cell viability [24]: 114%
- cell viability [25]: 104%
- cell viability [26]: 105%
- cell viability [27]: 94.7%
- cell viability [28]: 82.3%
- cell viability [29]: 72.2%
- cell viability [30]: 61.5%
- cell viability [31]: 52.6%
- cell viability [32]: 38%
- cell viability [33]: 30.6%

Structure (SMILES): CCC(=C/[C@H](C)C/C=C/C(C)=C/[C@@H](C)C(=O)[C@@H](C)[C@H](O)[C@@H](C)C/C(C)=C/C(=O)O)/C=C/[C@@H]1OC(=O)C=C[C@@H]1C
- cell viability [1]: 118%
- cell viability [2]: 115%
- cell viability [3]: 109%
- cell viability [4]: 107%
- cell viability [5]: 118%
- cell viability [6]: 123%
- cell viability [7]: 125%
- cell viability [8]: 83.8%
- cell viability [9]: 4.07%
- cell viability [10]: 2.4%
- cell viability [11]: 13.2%
- cell viability [12]: 104%
- cell viability [13]: 101%
- cell viability [14]: 110%
- cell viability [15]: 99.2%
- cell viability [16]: 114%
- cell viability [17]: 114%
- cell viability [18]: 109%
- cell viability [19]: 110%
- cell viability [20]: 3.02%
- cell viability [21]: 1.72%
- cell viability [22]: 14.7%
- cell viability [23]: 99.7%
- cell viability [24]: 108%
- cell viability [25]: 113%
- cell viability [26]: 107%
- cell viability [27]: 122%
- cell viability [28]: 120%
- cell viability [29]: 120%
- cell viability [30]: 90.2%
- cell viability [31]: 3.22%
- cell viability [32]: 2.11%
- cell viability [33]: 14.7%

Structure (SMILES): CCCCCCCCCC(=O)N[C@@H](Cc1c[nH]c2ccccc12)C(=O)N[C@H](CC(N)=O)C(=O)N[C@@H](CC(=O)O)C(=O)N[C@@H]1C(=O)NCC(=O)N[C@@H](CCCN)C(=O)N[C@@H](CC(=O)O)C(=O)N[C@H](C)C(=O)N[C@@H](CC(=O)O)C(=O)NCC(=O)N[C@H](CO)C(=O)N[C@@H]([C@@H](C)CC(=O)O)C(=O)N[C@@H](CC(=O)c2ccccc2N)C(=O)O[C@@H]1C
- cell viability [1]: 105%
- cell viability [2]: 118%
- cell viability [3]: 118%
- cell viability [4]: 132%
- cell viability [5]: 108%
- cell viability [6]: 123%
- cell viability [7]: 119%
- cell viability [8]: 133%
- cell viability [9]: 149%
- cell viability [10]: 106%
- cell viability [11]: 114%
- cell viability [12]: 98.9%
- cell viability [13]: 112%
- cell viability [14]: 102%
- cell viability [15]: 122%
- cell viability [16]: 111%
- cell viability [17]: 104%
- cell viability [18]: 121%
- cell viability [19]: 124%
- cell viability [20]: 108%
- cell viability [21]: 117%
- cell viability [22]: 111%
- cell viability [23]: 103%
- cell viability [24]: 116%
- cell viability [25]: 103%
- cell viability [26]: 111%
- cell viability [27]: 125%
- cell viability [28]: 106%
- cell viability [29]: 141%
- cell viability [30]: 131%
- cell viability [31]: 102%
- cell viability [32]: 118%
- cell viability [33]: 80.3%

Structure (SMILES): c1ccc(CNc2nc(N3CCOc4ccccc43)nc3c2CCCC3)cc1
- cell viability [1]: 78.1%
- cell viability [2]: 97.2%
- cell viability [3]: 110%
- cell viability [4]: 103%
- cell viability [5]: 110%
- cell viability [6]: 93.4%
- cell viability [7]: 103%
- cell viability [8]: 111%
- cell viability [9]: 107%
- cell viability [10]: 100%
- cell viability [11]: 97.8%
- cell viability [12]: 100%
- cell viability [13]: 97.7%
- cell viability [14]: 109%
- cell viability [15]: 94.9%
- cell viability [16]: 99.9%
- cell viability [17]: 106%
- cell viability [18]: 106%
- cell viability [19]: 107%
- cell viability [20]: 106%
- cell viability [21]: 110%
- cell viability [22]: 90.2%
- cell viability [23]: 102%
- cell viability [24]: 103%
- cell viability [25]: 112%
- cell viability [26]: 105%
- cell viability [27]: 112%
- cell viability [28]: 111%
- cell viability [29]: 114%
- cell viability [30]: 109%
- cell viability [31]: 109%
- cell viability [32]: 97.6%
- cell viability [33]: 98.8%

Structure (SMILES): CC(O)(C#Cc1ccc2c(c1)N(c1nc(N)ncc1Cl)CC2)c1nccs1 (stereo not given)
- cell viability [1]: 98.7%
- cell viability [2]: 119%
- cell viability [3]: 132%
- cell viability [4]: 104%
- cell viability [5]: 130%
- cell viability [6]: 131%
- cell viability [7]: 130%
- cell viability [8]: 134%
- cell viability [9]: 152%
- cell viability [10]: 136%
- cell viability [11]: 87.5%
- cell viability [23]: 124%
- cell viability [24]: 113%
- cell viability [25]: 136%
- cell viability [26]: 131%
- cell viability [27]: 135%
- cell viability [28]: 135%
- cell viability [29]: 135%
- cell viability [30]: 127%
- cell viability [31]: 138%
- cell viability [32]: 147%
- cell viability [33]: 110%

Structure (SMILES): CC1(C)CNc2cc(NC(=O)c3cccnc3NCc3ccncc3)ccc21
- cell viability [1]: 131%
- cell viability [2]: 118%
- cell viability [3]: 112%
- cell viability [4]: 137%
- cell viability [5]: 108%
- cell viability [6]: 105%
- cell viability [7]: 112%
- cell viability [8]: 113%
- cell viability [9]: 109%
- cell viability [10]: 94.6%
- cell viability [11]: 91.8%
- cell viability [12]: 115%
- cell viability [13]: 119%
- cell viability [14]: 134%
- cell viability [15]: 124%
- cell viability [16]: 120%
- cell viability [17]: 118%
- cell viability [18]: 124%
- cell viability [19]: 120%
- cell viability [20]: 103%
- cell viability [21]: 120%
- cell viability [22]: 118%
- cell viability [23]: 116%
- cell viability [24]: 110%
- cell viability [25]: 120%
- cell viability [26]: 112%
- cell viability [27]: 107%
- cell viability [28]: 96.3%
- cell viability [29]: 114%
- cell viability [30]: 115%
- cell viability [31]: 113%
- cell viability [32]: 105%
- cell viability [33]: 115%
